In patent US20100284914A1 (priority 2005, published 2010):
Converted amounts (≈) assume the structure as drawn. Where two headings read alike, the source gives them in different places.

What was measured:
Candida albicans CBS 562 = format: cell-based; conditions: for MIC: read-out: MIC (column A)
Candida albicans 607 = format: cell-based
Candida albicans 615 = format: cell-based
[1] = test system: Candida glabrata 4475 (resistant to azoles); format: cell-based; conditions: Nakaseomyces glabratus, 24 h, read-out: MIC
Candida glabrata 4681 = format: cell-based; conditions: footnote c
Candida glabrata 4787 = format: cell-based
Rhizopus oryzae = assay: microbe, parasite or virus in culture; format: cell-based; conditions: Rhizopus arrhizus
in vivo = conditions: male, ICR, mouse, iv
[2] = long chain lengths
Sprague-Dawley rats = assay: PET imaging, bio-distribution; format: in vivo; conditions: normal female Sprague-Dawley rats, 50 μCi via tail vein, imaged after 30 minutes
Protocol: The exemplary [^18F] labeled amine fluorocyanoborane according to the present embodiments, Compound [^18F]K-I4, was injected into normal rats, and was monitored by a PET/CT Philips camera.
Four normal, female Sprague-Dawley rats (250-300 grams each) were injected via the tail vein with 50 μCi of Compound [^18F]K-I4 solution in saline (4.5 mCi/ml). Fifteen minutes after injection, the rats were anesthetized with 45 mg Ketamine and 24 mg Acepromazin, and after 30 minutes each rat was imaged for 15 minutes.

[3] = Stability of the radiolabeled product by TLC; format: physicochemical; conditions: saline solution, after 10 hours, silica gel 60 F254
Protocol: The final product was tested on TLC (silica gel 60 F254) after 10 hours and found stable.

[4] = CBS562, Candida albicans CBS 562, MIC-0, 24 h, 35° C.
[5] = Candida albicans 607, MIC-0, 24 h, 35° C., read-out: MIC
[6] = Candida albicans 615, MIC-0, 24 h, 35° C., read-out: MIC
[7] = Candida glabrata 4475 (resistant to azoles), footnote c
[8] = Nakaseomyces glabratus, Candida glabrata 4787, read-out: MIC
[9] = Candida albicans, 607, 24 h, read-out: MIC
[10] = Candida albicans, 615, 24 h, read-out: MIC

| Compound | MIC (Candida albicans CBS 562; [4]) [µM] | MIC (Candida albicans 607; [5]) [µM] | MIC (Candida albicans 615; [6]) [µM] | MIC [1, 7] [µg/mL] | MIC (Candida glabrata 4681) | further results |
| --- | --- | --- | --- | --- | --- | --- |
| C[N+](C)(C)[BH-](F)C#N (stereo not drawn) | – | – | – | – | – | melting point: 53 °C |
| C[N+](C)(C)[B-](F)(F)C#N | – | – | – | – | – | melting point: 48 °C |
| COC(=O)[B-](F)(F)[N+](C)(C)C | – | – | – | – | – | melting point: 66 °C |
| C[C@@H]1[C@H](O)[C@@H](C)/C=C/C=C/C=C/C=C/C=C/C=C/C=C/[C@H](O[C@@H]2O[C@H](C)[C@@H](O)[C@H](N)[C@@H]2O)C[C@@H]2O[C@](O)(C[C@@H](O)C[C@@H](O)[C@H](O)CC[C@@H](O)C[C@@H](O)CC(=O)O[C@H]1C)C[C@H](O)[C@H]2C(=O)O [CAF1, Amphotericin B, reference compound] | – | – | – | – | – | MIC (column A) (Candida albicans CBS 562; Candida albicans CBS 562, MIC-0, 24 h, 35° C.): 0.54 µM (≈ 0.499 µg/mL); MIC (Candida albicans 607; Candida albicans 607, MIC-0, 24 h, 35° C.): 0.27 µM (≈ 0.25 µg/mL); MIC (Candida albicans 615; Candida albicans 615, MIC-0, 24 h, 35° C.): 0.27 µM (≈ 0.25 µg/mL) |
| C[N+](C)(C)[B-](Br)(Br)C#N [K-E, trimethyl-amine cyanodibromoborane] | 1970 (≈ 504 µg/mL) | > 1970 | > 1970 | > 0.5 | – | – |
| CCCCCCCCCCC[N+](C)(C)[BH-](Br)C#N (stereo not drawn) [K-I1, dimethyl-undecyl-amine cyanobromoborane] | 49 (≈ 15.5 µg/mL) | 49 (≈ 15.5 µg/mL) | 49 (≈ 15.5 µg/mL) | 0.0078 (≈ 0.0246 µM) | 7.8^c μg per liter | MIC (Candida glabrata 4787; [8]): 15.6 µM (≈ 4.95 µg/mL); MIC (Rhizopus oryzae): 63 µg/mL (≈ 199 µM) |
| CCCCCCCCCCC[N+](C)(C)[B-](Br)(Br)C#N [K-I2, dimethyl-undecyl-amine cyanodibromoborane] | 39 (≈ 15.4 µg/mL) | 39 (≈ 15.4 µg/mL) | 39 (≈ 15.4 µg/mL) | – | 32^c μg per liter | MIC (Candida glabrata 4787; [8]): 32 µM (≈ 12.7 µg/mL); MTD (in vivo): 73.1 µmol/kg |
| CCCCCCCCCCC[N+](C)(C)[B-](F)(Br)C#N (stereo not drawn) [K-I3, dimethyl-undecyl-amine cyanofluorobromoborane] | 7.8 (≈ 2.61 µg/mL) | – | – | – | – | MIC (Rhizopus oryzae): 63 µg/mL (≈ 188 µM) |
| CCCCCCCCCCC[N+](C)(C)[BH-](F)C#N (stereo not drawn) [K-I4, dimethyl-undecyl-amine cyanofluoroborane] | 64 (≈ 16.4 µg/mL) | 64 (≈ 16.4 µg/mL) | 64 (≈ 16.4 µg/mL) | – | – | – |
| C[N+](C)(CCCCCCCCCC[N+](C)(C)[BH-](Br)C#N)[BH-](Br)C#N (stereo not drawn) [K-J1, N,N,N′,N′-tetramethyldecane-1,10-diamine bis-cyanobromoborane] | 140 (≈ 64.9 µg/mL) | 140 (≈ 64.9 µg/mL) | 140 (≈ 64.9 µg/mL) | 0.065 (≈ 0.14 µM) | 65^c μg per liter | MIC (Candida glabrata 4787; [8]): 65 µM (≈ 30.2 µg/mL) |
| C[N+](C)(CCCCCCCCCC[N+](C)(C)[B-](Br)(Br)C#N)[B-](Br)(Br)C#N [K-J2, N,N,N′,N′-tetramethyldecane-1,10-diamine bis-cyanodibromoborane] | – | – | – | – | 65^c μg per liter | MIC (Candida albicans CBS 562; Candida albicans, CBS562, 24 h): 104 µM (≈ 64.7 µg/mL); MIC (Candida albicans 607; [9]): 104 µM (≈ 64.7 µg/mL); MIC (Candida albicans 615; [10]): 104 µM (≈ 64.7 µg/mL); MIC [1]: 0.065 µg/mL (≈ 0.105 µM); MIC (Candida glabrata 4787; Nakaseomyces glabratus, 4787, read-out: MIC): 65 µM (≈ 40.4 µg/mL) |
| C[N+](C)([BH2-]C(=O)O)CCCCCCCCCC[N+](C)(C)[BH2-]C(=O)O [K-J3, N,N,N′,N′-tetramethyldecane-1,10-diamine bis-carboxyborane] | 188 (≈ 64.7 µg/mL) | 188 (≈ 64.7 µg/mL) | 907 (≈ 312 µg/mL) | 0.0312 (≈ 0.0907 µM) | 65^c μg per liter | MIC (Candida glabrata 4787; [8]): 65 µM (≈ 22.4 µg/mL) |
| C[N+](C)([BH2-]C#N)CCCCCCCCCC[N+](C)(C)[BH2-]C#N [K-J, N,N,N′,N′-tetramethyldecane-1,10-diamine bis-cyanoborane] | – | – | – | – | – | MIC (Candida albicans CBS 562; Candida albicans, CBS562, 24 h): 408 µM (≈ 125 µg/mL); MIC (Candida albicans 607; [9]): 408 µM (≈ 125 µg/mL); MIC (Candida albicans 615; [10]): 817 µM (≈ 250 µg/mL); MIC [1]: 0.065 µg/mL (≈ 0.212 µM) |
| CCCCCCC(C)(O)C[N+](C)(C)[BH2-]C#N (stereo not drawn) [K-O, 1-dimethylamino-2-methyl-octan-2-ol cyanoborane] | 2210 (≈ 500 µg/mL) | 1100 (≈ 249 µg/mL) | 1100 (≈ 249 µg/mL) | > 0.25 | – | – |
| CCCCCCCCCCCCCCCCC[N+](C)(C)[BH2-]C#N [K-S, heptadecyl-dimethyl-amine cyanoborane] | – | – | – | – | – | solubility [2]: solubility problems |
| CCCCCCCCCCC[N+](C)(C)[BH-]([18F])C#N (stereo not drawn) [[^18F]K-I4, [^18F]dimethyl-undecyl-amine cyanofluoroborane] | – | – | – | – | – | bio-distribution by PET/CT (Sprague-Dawley rats): uptake in the rat's bones; stability on TLC [3]: stable |
